Here are results for 18 molecules from ChEMBL document CHEMBL1649420, “Identifying chelators for metalloprotein inhibitors using a fragment-based approach” (J Med Chem, 2011).

Experiment [1] addresses T1, Tyrosinase (Agaricus bisporus) (UniProt O42713).
T1 sequence (whole entry): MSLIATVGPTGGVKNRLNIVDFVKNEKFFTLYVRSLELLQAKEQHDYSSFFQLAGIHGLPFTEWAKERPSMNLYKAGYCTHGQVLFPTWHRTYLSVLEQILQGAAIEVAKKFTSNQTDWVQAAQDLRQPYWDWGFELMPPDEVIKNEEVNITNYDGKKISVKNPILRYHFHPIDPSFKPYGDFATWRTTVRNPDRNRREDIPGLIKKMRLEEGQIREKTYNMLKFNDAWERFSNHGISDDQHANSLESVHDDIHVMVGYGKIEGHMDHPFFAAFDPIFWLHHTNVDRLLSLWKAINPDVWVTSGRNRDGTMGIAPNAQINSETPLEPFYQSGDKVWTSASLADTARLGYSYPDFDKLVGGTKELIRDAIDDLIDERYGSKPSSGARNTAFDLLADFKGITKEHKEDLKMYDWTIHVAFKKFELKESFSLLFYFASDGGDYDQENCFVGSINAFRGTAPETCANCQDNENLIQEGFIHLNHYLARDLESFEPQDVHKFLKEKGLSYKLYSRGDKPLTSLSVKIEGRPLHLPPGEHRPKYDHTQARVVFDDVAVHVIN
Conditions: at 1 mM.

For experiment [2], the target named is T2, Lethal factor (Bacillus anthracis) (UniProt P15917).
T2 sequence (whole entry): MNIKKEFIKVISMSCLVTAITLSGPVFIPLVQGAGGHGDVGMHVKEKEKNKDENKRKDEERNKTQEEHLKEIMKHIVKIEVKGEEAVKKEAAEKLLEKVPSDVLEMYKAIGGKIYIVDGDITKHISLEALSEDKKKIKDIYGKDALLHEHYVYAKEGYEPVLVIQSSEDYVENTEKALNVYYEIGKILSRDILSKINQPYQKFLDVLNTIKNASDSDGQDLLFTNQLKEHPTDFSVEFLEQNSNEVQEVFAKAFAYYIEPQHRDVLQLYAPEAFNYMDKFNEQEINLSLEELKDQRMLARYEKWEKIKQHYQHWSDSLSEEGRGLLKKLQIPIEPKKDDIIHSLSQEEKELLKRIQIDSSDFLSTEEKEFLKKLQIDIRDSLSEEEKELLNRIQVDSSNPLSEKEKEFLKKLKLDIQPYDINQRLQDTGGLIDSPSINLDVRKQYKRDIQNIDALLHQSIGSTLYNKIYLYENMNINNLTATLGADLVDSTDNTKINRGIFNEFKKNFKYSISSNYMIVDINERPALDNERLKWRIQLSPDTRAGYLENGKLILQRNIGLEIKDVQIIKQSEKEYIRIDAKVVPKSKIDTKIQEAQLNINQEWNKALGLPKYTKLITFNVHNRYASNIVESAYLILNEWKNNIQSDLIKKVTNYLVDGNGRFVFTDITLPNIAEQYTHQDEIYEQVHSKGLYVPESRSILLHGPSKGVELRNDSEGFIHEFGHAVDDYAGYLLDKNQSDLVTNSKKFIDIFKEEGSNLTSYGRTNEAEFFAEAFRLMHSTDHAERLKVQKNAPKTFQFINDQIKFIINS
Conditions: at 1 mM.

Experiment [3] deals with T3, Interstitial collagenase (Homo sapiens) (UniProt P03956).
T3 sequence (whole entry): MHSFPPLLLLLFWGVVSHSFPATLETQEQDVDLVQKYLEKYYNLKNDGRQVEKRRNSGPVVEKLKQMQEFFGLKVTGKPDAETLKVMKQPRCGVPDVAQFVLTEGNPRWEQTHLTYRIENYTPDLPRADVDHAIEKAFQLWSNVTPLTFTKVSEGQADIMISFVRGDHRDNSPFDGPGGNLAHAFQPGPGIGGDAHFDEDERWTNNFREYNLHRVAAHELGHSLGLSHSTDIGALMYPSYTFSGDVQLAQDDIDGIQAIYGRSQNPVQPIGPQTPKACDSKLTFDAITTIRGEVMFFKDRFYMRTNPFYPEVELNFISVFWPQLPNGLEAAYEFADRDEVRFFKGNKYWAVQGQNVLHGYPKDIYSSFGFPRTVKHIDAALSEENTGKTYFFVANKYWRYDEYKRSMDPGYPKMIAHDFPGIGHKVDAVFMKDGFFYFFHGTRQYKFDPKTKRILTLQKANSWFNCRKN
Particulars: at 1 mM.

Experiment [4] addresses 72 kDa type IV collagenase (Homo sapiens, UniProt P08253). Conditions: at 1 mM.
Experiment [5] concerns the target Stromelysin-1 (Homo sapiens) (UniProt P08254). Conditions: at 1 mM.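 Also: recombinant enzyme, inhibition read after a 30 min incubation.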
For experiment [6], the target named is Neutrophil collagenase (Homo sapiens) (UniProt P22894). Particulars: at 1 mM.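 Also: recombinant human MMP8 enzyme, percent inhibition read after 30 min.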
The target in experiment [7] is Matrix metalloproteinase-9 (Homo sapiens) (UniProt P14780). Conditions: at 1 mM.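 Also: recombinant human MMP9, activity read after 30 min.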
Experiment [8] has as its target T4, Polyunsaturated fatty acid 5-lipoxygenase (Homo sapiens) (UniProt P09917).
T4 sequence (whole entry): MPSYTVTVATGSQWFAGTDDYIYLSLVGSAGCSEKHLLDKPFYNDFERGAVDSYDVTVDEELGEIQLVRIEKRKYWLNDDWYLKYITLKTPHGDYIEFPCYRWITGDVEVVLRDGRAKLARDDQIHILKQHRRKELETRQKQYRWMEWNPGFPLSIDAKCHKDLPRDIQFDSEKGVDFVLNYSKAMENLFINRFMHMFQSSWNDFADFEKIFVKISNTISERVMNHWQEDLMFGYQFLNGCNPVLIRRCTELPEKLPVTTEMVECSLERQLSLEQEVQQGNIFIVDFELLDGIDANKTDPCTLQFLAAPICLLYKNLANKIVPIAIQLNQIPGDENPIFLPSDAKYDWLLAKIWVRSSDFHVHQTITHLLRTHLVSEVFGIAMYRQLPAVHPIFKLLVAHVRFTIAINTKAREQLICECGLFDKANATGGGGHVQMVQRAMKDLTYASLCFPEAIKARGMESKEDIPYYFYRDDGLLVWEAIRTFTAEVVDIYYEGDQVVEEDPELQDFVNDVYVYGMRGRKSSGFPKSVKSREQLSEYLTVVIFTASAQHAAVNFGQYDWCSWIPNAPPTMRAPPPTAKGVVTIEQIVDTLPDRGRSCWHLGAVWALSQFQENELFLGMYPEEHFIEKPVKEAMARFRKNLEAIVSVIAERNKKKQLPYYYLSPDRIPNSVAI
The experiment in a line: Inhibition of human recombinant 5-lipoxygenase at 1 mM after 10 mins by fluorescence assay.

Sequence of 72 kDa type IV collagenase (P08253 110-660 limits assumed): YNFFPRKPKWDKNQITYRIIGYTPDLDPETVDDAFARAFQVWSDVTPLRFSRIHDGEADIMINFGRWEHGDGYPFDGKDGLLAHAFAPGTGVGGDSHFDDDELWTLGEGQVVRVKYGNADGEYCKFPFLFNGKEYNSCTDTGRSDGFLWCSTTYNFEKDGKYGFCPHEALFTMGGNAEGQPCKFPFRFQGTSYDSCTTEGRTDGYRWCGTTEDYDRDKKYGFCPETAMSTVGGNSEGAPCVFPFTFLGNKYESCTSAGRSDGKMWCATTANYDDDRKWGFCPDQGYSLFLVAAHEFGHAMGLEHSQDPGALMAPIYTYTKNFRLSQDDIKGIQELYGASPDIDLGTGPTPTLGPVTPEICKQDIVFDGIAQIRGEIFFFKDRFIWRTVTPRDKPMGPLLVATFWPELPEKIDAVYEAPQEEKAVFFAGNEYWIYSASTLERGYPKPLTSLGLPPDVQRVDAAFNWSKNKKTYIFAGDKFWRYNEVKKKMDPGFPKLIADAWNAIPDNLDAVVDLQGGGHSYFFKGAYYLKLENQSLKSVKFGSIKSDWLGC
Sequence of Matrix metalloproteinase-9 (Homo sapiens) (P14780 whole entry): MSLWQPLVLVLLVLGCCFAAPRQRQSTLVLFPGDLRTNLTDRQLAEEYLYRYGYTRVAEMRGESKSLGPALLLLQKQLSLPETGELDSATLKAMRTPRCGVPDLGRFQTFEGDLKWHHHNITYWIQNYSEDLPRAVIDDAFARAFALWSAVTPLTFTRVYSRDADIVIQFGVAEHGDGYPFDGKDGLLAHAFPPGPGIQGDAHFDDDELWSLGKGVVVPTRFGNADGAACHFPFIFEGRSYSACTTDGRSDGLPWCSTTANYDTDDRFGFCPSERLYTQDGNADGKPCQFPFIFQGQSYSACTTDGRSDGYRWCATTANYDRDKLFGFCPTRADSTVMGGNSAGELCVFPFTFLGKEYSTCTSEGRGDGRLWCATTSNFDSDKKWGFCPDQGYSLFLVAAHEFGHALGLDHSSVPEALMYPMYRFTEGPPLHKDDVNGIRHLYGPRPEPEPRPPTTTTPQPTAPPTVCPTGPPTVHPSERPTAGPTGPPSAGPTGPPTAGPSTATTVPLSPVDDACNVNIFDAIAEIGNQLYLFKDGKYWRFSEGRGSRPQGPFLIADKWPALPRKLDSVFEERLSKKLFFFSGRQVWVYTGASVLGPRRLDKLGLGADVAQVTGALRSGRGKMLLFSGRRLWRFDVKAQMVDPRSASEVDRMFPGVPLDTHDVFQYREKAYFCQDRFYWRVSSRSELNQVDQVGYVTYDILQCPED
Sequence of Stromelysin-1 (Homo sapiens) (P08254 100-477 limits assumed): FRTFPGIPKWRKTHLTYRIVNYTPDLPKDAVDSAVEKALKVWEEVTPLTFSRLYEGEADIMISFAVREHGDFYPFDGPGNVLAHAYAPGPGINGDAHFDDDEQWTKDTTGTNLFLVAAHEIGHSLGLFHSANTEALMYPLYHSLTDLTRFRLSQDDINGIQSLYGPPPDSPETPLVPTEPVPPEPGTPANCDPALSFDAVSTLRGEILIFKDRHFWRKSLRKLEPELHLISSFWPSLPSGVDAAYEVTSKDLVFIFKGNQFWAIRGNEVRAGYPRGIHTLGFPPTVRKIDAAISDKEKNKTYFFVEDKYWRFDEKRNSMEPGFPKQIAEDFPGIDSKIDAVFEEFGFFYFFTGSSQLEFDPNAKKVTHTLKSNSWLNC
Sequence of Neutrophil collagenase (Homo sapiens) (P22894 101-467 limits assumed): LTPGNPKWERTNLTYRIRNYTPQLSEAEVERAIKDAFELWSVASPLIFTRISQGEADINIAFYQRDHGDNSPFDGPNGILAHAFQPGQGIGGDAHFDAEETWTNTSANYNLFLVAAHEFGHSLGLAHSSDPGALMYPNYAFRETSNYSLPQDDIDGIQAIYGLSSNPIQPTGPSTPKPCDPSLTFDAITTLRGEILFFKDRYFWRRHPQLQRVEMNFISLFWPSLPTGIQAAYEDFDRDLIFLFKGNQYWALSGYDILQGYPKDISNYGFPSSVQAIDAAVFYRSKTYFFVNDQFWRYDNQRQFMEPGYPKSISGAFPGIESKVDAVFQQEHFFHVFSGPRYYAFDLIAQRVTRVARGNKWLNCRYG

Take `Oc1ccccc1-c1nc2ccccc2s1`: the inhibition (commonly the change of the read-out against control, counted positive when it falls) was found to be 34% in experiment [1]; 1% in experiment [2]; 6% in experiment [3]; 7% in experiment [4]; 4% in experiment [5]; 40% in experiment [6]. Also, the inhibition in experiment [7] worked out at 3%.

On to `Oc1ccccc1-c1nc2ccccc2o1`, for which the inhibition was 3% in experiment [1]; 0% in experiment [2]; 11% in experiment [3]; 1% in experiment [4]; 4% in experiment [5]; 28% in experiment [6].

`O=c1cc[nH]c(=S)[nH]1`: the inhibition in experiment [1] stood at 36%; in experiment [2] it was 33%; in experiment [3], 52%; in experiment [4] it was 47%; in experiment [5], 47%; in experiment [6], 37%. The inhibition in experiment [7] worked out at 44%.

For the molecule `O=C1C=C(O)C(=O)c2ccccc21`, the inhibition was 100% in experiment [8]; 69% in experiment [1]; 100% in experiment [2]; 86% in experiment [3]; 84% in experiment [4]; 84% in experiment [5]. The inhibition in experiment [6] was found to be 86%; in experiment [7], 85%.

On to `CS(=O)(=O)Nc1cccc2cccnc12`, for which the inhibition in experiment [8] came to 13%; in experiment [3], 57%; in experiment [4] it was 84%; in experiment [5] it was 64%; in experiment [6], 75%; in experiment [7], 59%.

As for `O=C(O)c1ccc(O)c(O)c1`, the inhibition is 86% in experiment [8]; 50% in experiment [1]; 21% in experiment [2]; 14% in experiment [3]; -8% in experiment [4]; 0% in experiment [5]. The values for the inhibition in experiment [6] and in experiment [7] were 13% and -1%, respectively.

In the case of `Oc1nccc(S)n1`, the inhibition in experiment [8] turned out to be 46%; in experiment [1], 44%; in experiment [2] it was 22%; in experiment [3] it was 90%; in experiment [5], 95%; in experiment [6], 83%. Also, in experiment [7], the inhibition turned out to be 90%.

Regarding `Cc1cc(=O)[nH]c(=S)[nH]1`, the inhibition in experiment [8] is 70%; in experiment [1], 31%; in experiment [2], 29%; in experiment [3], 40%; in experiment [4] it was 26%; in experiment [5], 37%. For the same molecule, the figures for the inhibition in experiment [6] and in experiment [7] were 31% and 27%, respectively.

As to `[O-][n+]1ccccc1S`, the inhibition in experiment [8] was found to be 70%; in experiment [1], 81%; in experiment [2], 23%; in experiment [3], 78%; in experiment [4], 91%; in experiment [5], 100%. Further, the inhibition was found to be 90% in experiment [6] and 77% in experiment [7].

`Cc1cc(C)nc(S)n1`: the inhibition in experiment [8] worked out at 80%; in experiment [1], 99%; in experiment [2], 15%; in experiment [3], 56%; in experiment [4] it was 55%; in experiment [5] it was 70%. Besides, the inhibition in experiment [6] is 49%; in experiment [7] it was 56%.

`Oc1ccc(Cl)c2cccnc12`: the inhibition in experiment [1] turned out to be 0%; in experiment [2], 44%; in experiment [3] it was 39%; in experiment [4], 60%; in experiment [5], 45%; in experiment [6], 73%. The inhibition in experiment [7] worked out at 1%.

Consider `CCc1c(O)c(=S)ccn1CC`, for which the inhibition was found to be 97% in experiment [8]; 100% in experiment [1]; 55% in experiment [2]; 81% in experiment [3]; 100% in experiment [4]; 99% in experiment [5]. Also, the inhibition in experiment [6] was 94%; in experiment [7], 100%.

Turning to `COc1ccccc1S`, the inhibition in experiment [2] was 19%; in experiment [3], 11%; in experiment [4], 3%; in experiment [5], -8%; in experiment [6], 26%; in experiment [7] it was 17%.

`O=c1ccc2ccccc2[nH]1`: the inhibition in experiment [8] amounted to 22%; in experiment [1] it was 5%; in experiment [2] it was 36%; in experiment [3] it was 20%; in experiment [4], 5%; in experiment [5], 3%. Further, the results for the inhibition in experiment [6] and in experiment [7] were 33% and 5%, respectively.

For the molecule `Cc1c(O)c(=S)ccn1C`, the inhibition in experiment [8] turned out to be 95%; in experiment [1], 100%; in experiment [2] it was 51%; in experiment [3], 78%; in experiment [4], 100%; in experiment [5] it was 99%. Moreover, the inhibition in experiment [6] was found to be 95%; in experiment [7], 100%.

For `Oc1ccc2ccccc2c1O`, the inhibition in experiment [8] was 69%; in experiment [2], 85%; in experiment [3] it was 71%; in experiment [4], 71%; in experiment [5] it was 89%; in experiment [6] it was 100%. Further, the inhibition in experiment [7] stood at 86%.

Take `Cc1ccc(C(=O)O)c(C(=O)O)n1`: the inhibition in experiment [8] came out at 22%; in experiment [1] it was 96%; in experiment [2], 43%; in experiment [3], 8%; in experiment [5], 28%; in experiment [6], 11%. Also, in experiment [7], the inhibition was -10%.

Consider `Nc1cccc2cccnc12`, for which the inhibition is 30% in experiment [2]; 63% in experiment [3]; 51% in experiment [4]; 56% in experiment [5]; 61% in experiment [6]; 57% in experiment [7].
